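In this assay, cells in 96-well plates receive the compound at five concentrations for 48 hours. Endpoints are linearly interpolated between the surrounding concentrations. The concentration for 50% growth inhibition is given as GI50. TGI: concentration producing complete growth inhibition.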
Columns and labels:
Test in all cases: DTP human tumour cell line panel, 48 h
[1] = tested on: 786-0 renal
[2] = tested on: A498 renal
[3] = tested on: A549 NSCLC
[4] = tested on: ACHN renal
[5] = tested on: BT-549 breast
[6] = tested on: CAKI-1 renal
[7] = tested on: CCRF-CEM leukemia
[8] = tested on: COLO 205 colon
[9] = tested on: DU-145 prostate
[10] = tested on: EKVX NSCLC
[11] = tested on: HCC-2998 colon
[12] = tested on: HCT-116 colon
[13] = tested on: HCT-15 colon
[14] = tested on: HL-60(TB) leukemia
[15] = tested on: HOP-62 NSCLC
[16] = tested on: HOP-92 NSCLC
[17] = tested on: HS 578T breast
[18] = tested on: HT29 colon
[19] = tested on: IGROV1 ovarian
[20] = tested on: K-562 leukemia
[21] = tested on: KM12 colon
[22] = tested on: LOX IMVI melanoma
[23] = tested on: M14 melanoma
[24] = tested on: MALME-3M melanoma
[25] = tested on: MCF7 breast
[26] = tested on: MDA-MB-231 breast
[27] = tested on: MDA-MB-435
[28] = tested on: MOLT-4 leukemia
[29] = tested on: NCI-H226 lung

Compound: Cc1cnc(Nc2ccc(N3CCN(C)CC3)cc2)nc1Nc1ccc(Cl)c(NS(=O)(=O)C(C)(C)C)c1
- GI50 [1]: 208 nM
- TGI [1]: 1820 nM
- GI50 [2]: 178 nM
- TGI [2]: 881 nM
- GI50 [3]: 339 nM
- TGI [3]: 1810 nM
- GI50 [4]: 90.2 nM
- TGI [4]: 2200 nM
- GI50 [5]: 872 nM
- TGI [5]: 2590 nM
- GI50 [6]: 62.1 nM
- TGI [6]: 2090 nM
- GI50 [7]: 180 nM
- TGI [7]: 6830 nM
- GI50 [8]: 94 nM
- TGI [8]: 543 nM
- GI50 [9]: 303 nM
- TGI [9]: 11000 nM
- GI50 [10]: 311 nM
- TGI [10]: 4400 nM
- GI50 [11]: 383 nM
- TGI [11]: 1840 nM
- GI50 [12]: 91.7 nM
- TGI [12]: 2730 nM
- GI50 [13]: 168 nM
- TGI [13]: 3180 nM
- GI50 [14]: 103 nM
- TGI [14]: 1020 nM
- GI50 [15]: 262 nM
- TGI [15]: 3730 nM
- GI50 [16]: 170 nM
- TGI [16]: 1590 nM
- GI50 [17]: 128 nM
- TGI [17]: 1400 nM
- GI50 [18]: 96.1 nM
- TGI [18]: 4190 nM
- GI50 [19]: 154 nM
- TGI [19]: 2660 nM
- GI50 [20]: 245 nM
- TGI [20]: 7740 nM
- GI50 [21]: 94.3 nM
- TGI [21]: 5390 nM
- GI50 [22]: 169 nM
- TGI [22]: 866 nM
- GI50 [23]: 112 nM
- TGI [23]: 1780 nM
- GI50 [24]: 690 nM
- TGI [24]: 2620 nM
- GI50 [25]: 79.5 nM
- TGI [25]: 2490 nM
- GI50 [26]: 159 nM
- TGI [26]: 2230 nM
- GI50 [27]: 170 nM
- TGI [27]: 10700 nM
- GI50 [28]: 419 nM
- TGI [28]: 11600 nM
- GI50 [29]: 230 nM
- TGI [29]: 2090 nM
